The values that follow come from US11969460B2, “Methods and compositions for treating decreased cognitive ability” (Saint Louis University, priority 2018, dated 2024).

Values joined by “and” are separate entries in the source; they are usually repeats but may differ in a detail not shown here. Equal values may be shown once.

The subject of data set [1] is mice. Description: Tolerability of adropin^34-76 doses in mice. Type of data set: in vivo, mouse. An excerpt:
Using mice, the Inventors have shown that administration of adropin^34-76, in doses as low as 90 nmol/kg/day, delivered as two 45 nmol/kg injections, can be effective in producing changes in metabolism. Dose as high as 900 nmol/kg/d are well tolerated in mice. While the doses required for a desired clinical effect in humans is expected to vary between patients, the 90 nmol/kg dose administered by subcutaneous, intramuscular, or intravenous injection, either once or twice a day, may represent a preferred treatment protocol. It is anticipated that the treatments would be administered daily, although long-acting formulations involving weekly injections are envisaged. The optimum dose and frequency for a particular subject may be determined by the patient's treating physician, based on the patient's cognitive response. It is anticipated that adropin therapy may or may not improve a subject's cognitive function relative to current baseline, however adropin therapy may result in significant delays in the advancement of the disease. Improvement may manifest as a significant delay or a reduced rate of subsequent cognitive decline.

The test system of data set [2] is male C57BL/6J (B6) mice, aged 18 months. Put plainly: Aversive T-maze acquisition after exogenous adropin^34-76 treatment. In kind it is in vivo, mouse. The procedure:
(§1) Memory retention and acquisition were assessed using an aversive T-maze and novel objective recognition, as previously described (Farr et al., (2016) J Alzheimers Dis.; 54(4):1339-1348). Briefly, the T-maze consists of a black plastic alley with a start box at one end and two goal boxes at the other. An electrifiable floor of stainless steel rods run throughout the maze to deliver a foot-shock using a scrambled grid floor shocker (Model E13-08, Coulbourn Instruments, Whitehall, PA). Mice are not permitted to explore the maze prior to training. A block of training trials begins when mice are placed in the start box. The guillotine door is raised and a cue buzzer sounded simultaneously (doorbell type, at 55 dB); 5s later a mild aversive foot-shock is applied with an intensity of 0.35 mA. The arm of the maze entered on the first trial is designated “incorrect” and the mild foot-shock continued until the mouse enters the other goal box, which in all subsequent trials is designated “correct” for each mouse. Mice are trained until they made one active avoidance, with an inter-trial interval of 30-35s. The number of trials to make one active avoidance is the measure of acquisition. Retention is tested 7d later, with training continued until the criterion of making five active avoidances in six consecutive trials is achieved. The number of trials needed to reach this criterion is the measure of retention(Butler et al., (2012) The Journal of clinical endocrinology and metabolism.; 97(10):3783-3791; Wong et al., (2014) The Journal of biological chemistry.; 289(37):25976-25986).
(§2) To examine the effects of […] adropin on a subject's cognitive ability, 34 male C57BL/6J (B6) mice, aged 18 months, were treated with exogenous adropin^34-76. Mice were purchased from The Jackson Laboratory (Bar Harbor, ME). After acclimation for 1 month, mice were separated into two weight matched groups of 15 mice: Group 1 adropin^34-76 treatment group and Group 2 saline vehicle control.
(§3) The mice were administered a single intraperitoneal injection (volume 100 μl) each morning (0900h) for 4 weeks. Group 1 was administered adropin^34-76 at a dose of 90 nmol/kg/day. Group 2 was administered saline. The peptide was purchased from Neoscientific Inc. Behavioral testing began after 2 weeks of injections. Injections continued though testing until 4 weeks.
Mice prepared with adropin or placebo in Example 3 were subjected to the Acquisition T-maze test.

Data set [3] is described as follows: Body weight and deaths during 4-week intraperitoneal treatment. In kind it is in vivo. Particulars: group 1, 90 nmol/kg/day intraperitoneal. The protocol:
as §2, §3

Data set [4] relates to mice. Description: Metabolic effects of administered adropin^34-76 in mice. Type of data set: in vivo, mouse. An excerpt: The inventors have engineered transgenic mice that over express adropin (“AdrTG”) in the nervous system and peripheral tissues. […] In addition, reduced JNK phosphorylation and expression of cytokines indicates reduced neuroinflammatory processes. Inflammation is also increasingly considered an important predisposing risk factor for age-related neurodegeneration (Irwin & Vitiello (2019) Lancet Neurol. 18(3):296-306; Madhavan et a., Nat Rev Cardiol. 15(12):744-756). […] In addition, the inventors have also shown that adropin levels may be increased systemically by […] administration. […] (Kumar et al. 2008; Gao et al. 2014, 2015)
Using mice, the Inventors have shown that administration of adropin^34-76, in doses as low as 90 nmol/kg/day, delivered as two 45 nmol/kg injections, can be effective in producing changes in metabolism. Dose as high as 900 nmol/kg/d are well tolerated in mice. While the doses required for a desired clinical effect in humans is expected to vary between patients, the 90 nmol/kg dose administered by subcutaneous, intramuscular, or intravenous injection, either once or twice a day, may represent a preferred treatment protocol. […] The optimum dose and frequency for a particular subject may be determined by the patient's treating physician, based on the patient's cognitive response. […]

For data set [5], the system named is mice. Particulars: subjects with diet-induced obesity; Kumar et al. 2008; Gao et al. 2014, 2015; cited from earlier work.
Data set [6] relates to male C57BL/6J (B6) mice, aged 18 months. Description: Novel Object Recognition test after exogenous adropin^34-76 treatment. In kind it is in vivo, mouse. The procedure: For the novel object recognition task, mice are habituated to an empty apparatus, a 58×66×11-cm white plastic box, for 5 min a day for 3 consecutive days prior to entry of objects. On the first day of training, mice are placed in the testing apparatus with two identical objects (A and B). 24h later the animal is reintroduced to the arena but this time one of the original objects is removed and a new object (C). Total time spent exploring each of the two objects is recorded. Anxiety will be assessed using open field and elevated plus maze tests. The experimental apparatus consists of a central platform, two open arms and two equal-sized closed arms opposite to each other. The test consisted of placing a mouse in the central platform facing an enclosed arm and allowing it to freely explore the maze for 5 min. The number of entries into the open and closed arms and the time spent in open arms was measure by an observer blind to treatment
as §2, §3
A non-amnesic subject will spend more time exploring the novel object than the familiar one. When adropin treated and vehicle treated mice were subjected to the Novel Object Recognition test, adropin treated mice spent more time exploring the novel object (FIG. 11, Table 1)

Data set [7] has the same test system. Put plainly: Aversive T-maze retention after exogenous adropin^34-76 treatment. In kind it is in vivo, mouse. Details: key to T-maze Retention, Difference between means (Adropin vs. Vehicle): difference in trials to criterion, adropin minus vehicle; key to T-maze Retention: number of trials to reach criterion (5 avoidances in 6 trials). The procedure:
as §1, §2, §3
(FIG. 12, Table 3) Mice were retested in the maze after 7 days and Adropin treated mice retained learned memories and complete the maze in lets time.

Take “Adropin^34-76 (CHSRSADVDSLSESSPNSSPGPCPEKAPPPQKPSHEGSYLLQP; listed as Homo sapiens)”: the well tolerated dose in the data set on mice [1] is at most 900 nmol/kg/day. Further, in data set [2] (95% confidence interval −4.736 to −2.150), the “T-maze acquisition, Difference between means (Adropin vs. Vehicle)” value is given as −3.443 ± 0.6301. Moreover, the T-maze acquisition in data set [2] (individual mice, number of trials to make one active avoidance, 90 nmol/kg/day intraperitoneal) was 7. (5×) and 8. (4×) and 9. (2×) and 6. (3×). In data set [2] (n = 14, P <0.0001 vs. Vehicle), the “T-maze acquisition, Mean ± SEM” value is listed as 7.357 ± 0.2695,. The “performance in Acquisition T-maze test (in words)” value in data set [2] (vs placebo treated mice) is reported as “improved performance”. For the same substance, in data set [3], the deaths during treatment entry is on record as “One mouse in group 1 died”. Moreover, in the data set with mice [4] (male B6 mice, injection), the “dose known to affect metabolic control” value is “about 450 nmol/kg”. Moreover, the “dose effective in producing changes in metabolism” value in the data set with mice [4] (mice, delivered as two 45 nmol/kg injections) is on record as at least 90 nmol/kg/day. In addition, in the data set on mice [5], the “metabolic changes after intraperitoneal injection (in words)” value is “metabolic changes suggesting improvements in glucose control and reduced risk for type 2 diabetes”. Further, the “Novel Object Recognition % Novel Object, Difference between means (Adropin vs. Vehicle)” value in data set [6] (95% confidence interval 2.733 to 27.24) came to 14.99 ± 5.982%. For the same substance, in data set [6] (individual mice, 90 nmol/kg/day intraperitoneal, 24 hour delay), the “Novel Object Recognition test 24 Hour delay % Novel Object” value is 55.56% and 77.50% and 66.67% and 79.10% and 51.06% and 100.00% and 51.61% and 46.43% and 42.86% and 53.06% and 37.50% and 40.74% and 64.58% and 62.50% and 58.82%. For the same substance, the “Novel Object Recognition % Novel Object, Mean ± SEM” value in data set [6] (n = 15, 90 nmol/kg/day intraperitoneal, P 0.0183 vs. Vehicle) is reported as 58.88 ± 4.106, n = 15%. In data set [6] (vs vehicle treated mice), the “cognitive performance in Novel Object Recognition test (in words)” value is on record as “improved cognitive performance”. Besides, in data set [7] (95% confidence interval −3.121 to −1.565), the “T-maze Retention, Difference between means (Adropin vs. Vehicle)” value is reported as −2.343 ± 0.3792. In addition, in data set [7] (individual mice, retested after 7 days, trials to five active avoidances in six consecutive trials, 90 nmol/kg/day intraperitoneal), the “T-maze Retention” value is 7. (7×) and 8. and 6. (5×) and 9. Further, in data set [7] (n = 14, P <0.0001 vs. Vehicle), the “T-maze Retention, Mean ± SEM” value is on record as 6.857 ± 0.2310,. In data set [7] (retested after 7 days), the “performance in T-maze retention (in words)” value is reported as “superior performance”.
